Measurements reported in the supplement of paper PMC11451515.

Test system: P12-Ichikawa
Assay: cell viability relative to DMSO control; higher = less cytotoxic
Conditions: 48 h
Summary of the method: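 Viability is a per-plate percentage relative to DMSO wells, with cell-free wells as background. CellTiter-Glo One luminescence was read after 48 h at 37°C on 1536-well plates (5 μl) of NOMO1 or SEM (500 cells/well) or P12-Ichikawa (1000 cells/well) leukemia cells. The cells had been adapted for at least four passages in each medium and pin-dosed with library compounds in DMSO from 47 μM to 0.79 nM in 11 threefold steps.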

C#C[C@]1(O)CC[C@H]2[C@@H]3CCc4cc(O)ccc4[C@H]3CC[C@@]21C
cell viability [%]
Conditions	HPLM + 10% dialyzed FBS	RPMI 5 mM glucose + 10% FBS	RPMI 5 mM glucose + 10% dialyzed FBS
0.000781 µM	102	98.3	87.5
0.00234 µM	98.3	95.6	86.7
0.00702 µM	95.9	89.4	88.9
0.0211 µM	97.4	93.6	92.3
0.0632 µM	95.7	92.3	93.3
0.19 µM	102	94.3	92.4
0.569 µM	89.5	96.7	95.6
1.71 µM	97.3	83.7	85.6
5.12 µM	95.8	89.1	81.8
15.4 µM	75.3	67.7	72.5
46.1 µM	47.2	42.6	58.3
